Source: patent US11905294B2, “Imidazo[1,5-a]pyrazine derivatives as PI3Kδ inhibitors” (BEIGENE, LTD., priority 2017, dated 2024)
pIC50: −log10 of the molar value.

What was measured:
Format in all cases: biochemical
[1] = molecular target: PI3K (p110α/p85α) (Homo sapiens, UniProt P42336); experiment: PI3Kα assay (ADP-Glo Kinase Assay); settings: recombinant enzyme; IC50 (nM) or max inhibition (%) at 0.5 μM
[2] = molecular target: PI3K (p110δ/p85α) (Homo sapiens, UniProt O00329); experiment: PI3Kδ assay (ADP-Glo Kinase Assay); settings: recombinant enzyme; IC50 (nM) or max inhibition (%) at 0.5 μM
Chain of PI3K (p110δ/p85α) (O00329 whole entry): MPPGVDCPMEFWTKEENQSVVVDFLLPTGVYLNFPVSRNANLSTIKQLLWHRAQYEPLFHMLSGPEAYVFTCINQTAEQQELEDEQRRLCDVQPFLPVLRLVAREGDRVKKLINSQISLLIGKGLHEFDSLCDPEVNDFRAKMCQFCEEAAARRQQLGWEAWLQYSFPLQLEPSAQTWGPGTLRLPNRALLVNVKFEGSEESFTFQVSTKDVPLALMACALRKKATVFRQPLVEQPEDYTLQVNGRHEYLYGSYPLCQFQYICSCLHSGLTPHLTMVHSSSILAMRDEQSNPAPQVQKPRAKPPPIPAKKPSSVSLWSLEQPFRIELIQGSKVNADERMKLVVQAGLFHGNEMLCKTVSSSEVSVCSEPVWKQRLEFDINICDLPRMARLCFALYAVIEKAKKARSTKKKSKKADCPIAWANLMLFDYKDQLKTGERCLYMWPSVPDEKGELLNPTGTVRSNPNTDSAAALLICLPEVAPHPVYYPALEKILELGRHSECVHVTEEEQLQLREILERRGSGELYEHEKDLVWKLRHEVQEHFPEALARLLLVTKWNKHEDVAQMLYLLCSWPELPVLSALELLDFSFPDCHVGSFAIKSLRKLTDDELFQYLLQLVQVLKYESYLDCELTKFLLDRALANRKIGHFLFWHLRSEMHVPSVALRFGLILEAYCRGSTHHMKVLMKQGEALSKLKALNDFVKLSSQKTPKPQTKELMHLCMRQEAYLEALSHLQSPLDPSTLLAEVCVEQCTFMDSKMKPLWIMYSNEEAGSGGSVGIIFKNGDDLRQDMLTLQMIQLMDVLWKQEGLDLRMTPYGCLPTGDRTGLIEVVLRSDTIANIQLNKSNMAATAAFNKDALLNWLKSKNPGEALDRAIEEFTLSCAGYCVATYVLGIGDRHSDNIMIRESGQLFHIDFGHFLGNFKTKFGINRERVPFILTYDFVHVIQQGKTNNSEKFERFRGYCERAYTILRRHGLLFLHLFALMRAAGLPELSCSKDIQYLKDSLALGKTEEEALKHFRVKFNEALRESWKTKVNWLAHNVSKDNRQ
Chain of PI3K (p110δ/p85α) (P27986 whole entry partner): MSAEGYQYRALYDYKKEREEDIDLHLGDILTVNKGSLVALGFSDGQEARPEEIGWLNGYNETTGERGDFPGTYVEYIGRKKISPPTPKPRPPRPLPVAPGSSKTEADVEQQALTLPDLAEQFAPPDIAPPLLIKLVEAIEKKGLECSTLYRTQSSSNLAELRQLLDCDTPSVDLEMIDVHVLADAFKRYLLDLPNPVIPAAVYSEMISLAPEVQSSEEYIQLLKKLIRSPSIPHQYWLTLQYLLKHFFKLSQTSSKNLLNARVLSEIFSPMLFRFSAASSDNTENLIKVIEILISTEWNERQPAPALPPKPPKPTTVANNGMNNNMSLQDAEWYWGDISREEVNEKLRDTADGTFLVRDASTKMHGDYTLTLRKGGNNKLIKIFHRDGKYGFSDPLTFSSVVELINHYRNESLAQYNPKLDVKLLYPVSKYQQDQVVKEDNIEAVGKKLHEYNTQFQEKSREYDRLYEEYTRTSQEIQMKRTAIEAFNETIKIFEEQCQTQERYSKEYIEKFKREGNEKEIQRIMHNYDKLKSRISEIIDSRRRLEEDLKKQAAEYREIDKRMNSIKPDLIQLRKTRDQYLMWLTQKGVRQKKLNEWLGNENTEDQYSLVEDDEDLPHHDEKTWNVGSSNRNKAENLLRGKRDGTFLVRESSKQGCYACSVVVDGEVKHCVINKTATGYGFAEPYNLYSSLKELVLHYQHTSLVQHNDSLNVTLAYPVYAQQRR
Description: Compounds disclosed herein were tested for inhibition of PI3Kδ kinase activity using commercial ADP-Glo™ Kinase Assay (Promega Corporation) and following the manufacture's instruction. Briefly, recombinant PI3K (p110δ/p85α) enzyme, lipid kinase substrate and a serial dilution of compounds disclosed herein were incubated for 0.5 hr at room temperature. ATP was added to initiate the kinase reaction. After incubation for 1 hr at room temperature, ADP-Glo™ reagent was added to terminate the kinase reaction and deplete the remaining ATP. After incubation for 1 hr at room temperature, kinase detection reagent was added to simultaneously convert ADP to ATP and allow the newly synthesized ATP to be measured using a luciferase/luciferin reaction. After incubation for 0.5 hr at room temperature, the luminescence generated was measured on a PHERAstar FS plate reader (BMG LABTECH). The residual enzyme activity in presence of increasing concentrations of compounds was calculated based on the luminescence. The IC50 for each compound was derived from fitting the data to the four-parameter logistic equation by Graphpad Prism software.

[3] = molecular target: PI3K (p110β/p85α) (Homo sapiens, UniProt P42338); experiment: PI3Kβ assay (ADP-Glo Kinase Assay); settings: read-out: Enzyme activity IC50 PI3Kβ
Chain of PI3K (p110β/p85α) (P42338 whole entry): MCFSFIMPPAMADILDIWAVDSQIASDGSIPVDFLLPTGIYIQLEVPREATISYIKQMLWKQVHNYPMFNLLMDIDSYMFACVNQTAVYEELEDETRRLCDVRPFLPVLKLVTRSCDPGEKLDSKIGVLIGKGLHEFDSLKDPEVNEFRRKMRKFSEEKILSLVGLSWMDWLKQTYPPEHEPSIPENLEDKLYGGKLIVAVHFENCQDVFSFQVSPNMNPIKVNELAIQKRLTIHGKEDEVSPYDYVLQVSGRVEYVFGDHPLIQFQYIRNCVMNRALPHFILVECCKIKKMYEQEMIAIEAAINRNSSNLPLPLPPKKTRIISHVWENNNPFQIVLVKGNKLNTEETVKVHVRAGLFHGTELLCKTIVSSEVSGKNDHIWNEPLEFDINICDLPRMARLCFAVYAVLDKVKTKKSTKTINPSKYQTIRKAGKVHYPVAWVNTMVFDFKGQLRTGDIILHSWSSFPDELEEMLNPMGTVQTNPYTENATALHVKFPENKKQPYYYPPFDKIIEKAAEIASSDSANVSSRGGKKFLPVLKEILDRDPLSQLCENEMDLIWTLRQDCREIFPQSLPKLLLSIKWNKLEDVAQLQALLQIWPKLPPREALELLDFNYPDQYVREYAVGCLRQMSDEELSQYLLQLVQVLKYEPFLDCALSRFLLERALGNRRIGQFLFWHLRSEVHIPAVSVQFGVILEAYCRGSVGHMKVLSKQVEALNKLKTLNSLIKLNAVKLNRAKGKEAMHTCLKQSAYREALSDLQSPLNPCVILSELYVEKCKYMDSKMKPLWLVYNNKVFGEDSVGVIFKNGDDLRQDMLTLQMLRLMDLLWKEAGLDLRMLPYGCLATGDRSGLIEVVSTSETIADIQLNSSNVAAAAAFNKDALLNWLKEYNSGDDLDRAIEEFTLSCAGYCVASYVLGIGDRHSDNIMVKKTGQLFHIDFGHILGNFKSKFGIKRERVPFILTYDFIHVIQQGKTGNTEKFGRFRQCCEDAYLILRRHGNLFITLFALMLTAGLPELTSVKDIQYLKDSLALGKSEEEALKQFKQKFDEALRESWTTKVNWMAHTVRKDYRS
Chain of PI3K (p110β/p85α) (P27986 whole entry partner): as the sequence (P27986 whole entry partner) above

[4] = molecular target: PI3K (p110γ) (Homo sapiens, UniProt P48736); experiment: PI3Kγ assay (ADP-Glo Kinase Assay); settings: recombinant enzyme; IC50 (nM) or max inhibition (%) at 0.5 μM
Chain of PI3K (p110γ) (P48736 whole entry): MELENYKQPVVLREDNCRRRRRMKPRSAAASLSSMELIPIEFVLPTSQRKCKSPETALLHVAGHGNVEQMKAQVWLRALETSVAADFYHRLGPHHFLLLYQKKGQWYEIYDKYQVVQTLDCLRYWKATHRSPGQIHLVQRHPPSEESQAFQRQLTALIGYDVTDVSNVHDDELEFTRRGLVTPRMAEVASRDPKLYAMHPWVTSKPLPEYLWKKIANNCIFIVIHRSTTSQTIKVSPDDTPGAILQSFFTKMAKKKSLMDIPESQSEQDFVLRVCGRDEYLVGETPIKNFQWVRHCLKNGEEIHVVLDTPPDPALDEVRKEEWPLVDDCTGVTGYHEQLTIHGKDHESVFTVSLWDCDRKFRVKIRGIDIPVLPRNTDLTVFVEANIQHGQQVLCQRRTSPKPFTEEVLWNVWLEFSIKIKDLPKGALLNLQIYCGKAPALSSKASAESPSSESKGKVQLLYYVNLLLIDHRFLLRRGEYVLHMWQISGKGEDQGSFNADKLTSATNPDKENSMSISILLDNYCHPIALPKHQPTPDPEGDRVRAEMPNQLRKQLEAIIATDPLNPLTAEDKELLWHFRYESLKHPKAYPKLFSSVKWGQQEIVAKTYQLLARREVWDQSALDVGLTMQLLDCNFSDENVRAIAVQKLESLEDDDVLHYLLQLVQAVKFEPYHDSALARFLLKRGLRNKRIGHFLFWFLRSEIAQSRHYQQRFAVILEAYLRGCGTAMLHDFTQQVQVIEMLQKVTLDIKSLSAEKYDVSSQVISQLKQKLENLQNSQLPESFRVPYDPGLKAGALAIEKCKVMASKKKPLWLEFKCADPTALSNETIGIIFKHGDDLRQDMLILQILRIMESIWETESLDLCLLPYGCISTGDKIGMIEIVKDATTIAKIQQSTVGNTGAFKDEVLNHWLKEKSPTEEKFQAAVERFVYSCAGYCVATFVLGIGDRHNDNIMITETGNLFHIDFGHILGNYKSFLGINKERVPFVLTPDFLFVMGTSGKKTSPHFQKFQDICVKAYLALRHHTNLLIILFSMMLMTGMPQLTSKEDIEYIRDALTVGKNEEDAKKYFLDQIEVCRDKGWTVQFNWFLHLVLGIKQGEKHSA

Chain of PI3K (p110α/p85α) (P42336 whole entry): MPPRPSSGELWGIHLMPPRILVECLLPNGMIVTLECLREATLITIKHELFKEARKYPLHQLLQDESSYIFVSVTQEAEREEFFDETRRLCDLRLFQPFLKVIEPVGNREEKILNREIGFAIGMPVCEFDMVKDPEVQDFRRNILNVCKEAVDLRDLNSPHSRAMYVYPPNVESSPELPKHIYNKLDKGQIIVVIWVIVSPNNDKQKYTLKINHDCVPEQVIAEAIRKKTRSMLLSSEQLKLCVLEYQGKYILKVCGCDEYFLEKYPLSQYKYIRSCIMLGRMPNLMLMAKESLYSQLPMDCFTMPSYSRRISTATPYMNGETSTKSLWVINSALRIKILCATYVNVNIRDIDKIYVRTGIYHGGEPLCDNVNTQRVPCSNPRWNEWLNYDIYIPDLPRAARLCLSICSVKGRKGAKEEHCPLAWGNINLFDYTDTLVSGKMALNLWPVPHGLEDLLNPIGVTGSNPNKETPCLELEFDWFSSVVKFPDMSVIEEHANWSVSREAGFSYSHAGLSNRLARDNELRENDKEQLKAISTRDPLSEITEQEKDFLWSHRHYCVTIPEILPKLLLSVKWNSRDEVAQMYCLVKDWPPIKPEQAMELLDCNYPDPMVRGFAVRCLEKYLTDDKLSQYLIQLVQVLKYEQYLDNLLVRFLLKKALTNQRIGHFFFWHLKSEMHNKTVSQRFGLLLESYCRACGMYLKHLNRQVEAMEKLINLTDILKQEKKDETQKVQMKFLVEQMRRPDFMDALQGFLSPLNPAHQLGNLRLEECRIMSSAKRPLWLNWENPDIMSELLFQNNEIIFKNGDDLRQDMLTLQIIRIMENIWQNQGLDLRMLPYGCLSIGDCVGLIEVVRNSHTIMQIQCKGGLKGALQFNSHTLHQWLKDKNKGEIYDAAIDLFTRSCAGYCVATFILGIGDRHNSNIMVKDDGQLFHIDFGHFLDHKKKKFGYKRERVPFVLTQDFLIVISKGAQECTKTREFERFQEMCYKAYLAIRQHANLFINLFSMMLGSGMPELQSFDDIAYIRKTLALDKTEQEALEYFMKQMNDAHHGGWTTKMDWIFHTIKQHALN
Chain of PI3K (p110α/p85α) (P27986 whole entry partner): as the sequence (P27986 whole entry partner) above

Compound | IC50 [1] [nM] | IC50 [2] [nM] | pIC50 [3] | IC50 [4] [nM]
Cc1nc(C(C)c2cc(Cl)c(F)c(C(=O)N3CCOCC3)c2OC(C)C)n2ccnc(N)c12 (single isomer, unassigned) [Compound 4A] | 13000 | 1 | 4.96 | 2000
Cc1nc([C@@H](C)c2cc(Cl)c(F)c(C(=O)N[C@]3(C)C[C@@H](O)C3)c2OC(C)C)n2ccnc(N)c12 [Compound 39, 3-((S)-1-(8-amino-1-methylimidazo[1,5-a]pyrazin-3-yl)ethyl)-5-chloro-6-fluoro-N-((1r,3S)-3-hydroxy-1-methylcyclobutyl)-2-isopropoxybenzamide] | 10000 | 0.9 | 5.64 | 28000
COc1ccc([C@@H](C)NC(=O)c2c(F)c(Cl)cc([C@H](C)c3nc(C)c4c(N)nccn34)c2OC(C)C)cc1 [Compound 36, 3-((S)-1-(8-amino-1-methylimidazo[1,5-a]pyrazin-3-yl)ethyl)-5-chloro-6-fluoro-2-isopropoxy-N-((R)-1-(4-methoxyphenyl)ethyl)benzamide] | 9500 | 2 | 4.89 | 460
CNC(=O)c1c(F)c(Cl)cc([C@H](C)c2nc(C)c3c(N)nccn23)c1OC(C)C [Compound 27, (S)-3-(1-(8-amino-1-methylimidazo[1,5-a]pyrazin-3-yl)ethyl)-5-chloro-6-fluoro-2-isopropoxy-N-methylbenzamide] | 32000 | 0.93 | 5.52 | 3900
Cc1nc([C@@H](C)c2cc(Cl)c(F)c(C(=O)N[C@H]3CCC[C@@H]3O)c2OC(C)C)n2ccnc(N)c12 [Compound 37, 3-((S)-1-(8-amino-1-methylimidazo[1,5-a]pyrazin-3-yl)ethyl)-5-chloro-6-fluoro-2-isopropoxy-N-((1S,2S)-2-hydroxycyclopentyl)benzamide] | 11000 | 0.56 | 4.96 | 2500
Cc1nc(C(C)c2cc(Cl)c(F)c(C(=O)N3CCC(F)(F)CC3)c2OC(C)C)n2ccnc(N)c12 (single isomer, unassigned) [Compound 13A] | 20000 | 3 | < 4.30 | 9300
Cc1nc(C(C)c2cc(Cl)c(F)c(C(=O)NC3CC3)c2OC(C)C)n2ccnc(N)c12 (stereo not shown) [Compound 11, 3-(1-(8-amino-1-methylimidazo[1,5-a]pyrazin-3-yl)ethyl)-5-chloro-N-cyclopropyl-6-fluoro-2-isopropoxybenzamide] | 31000 | 2 | 5.21 | 7300
Cc1nc(C(C)c2cc(Cl)c(F)c(C(=O)N3CCOCC3)c2OC(C)C)n2ccnc(N)c12 (stereo not shown) [Compound 4, (3-(1-(8-amino-1-methylimidazo[1,5-a]pyrazin-3-yl)ethyl)-5-chloro-6-fluoro-2-isopropoxyphenyl)(morpholino)methanone] | 25000 | 1.9 | 4.62 | 3100
Cc1nc([C@@H](C)c2cc(Cl)c(F)c(C(=O)NCC3CCOCC3)c2OC(C)C)n2ccnc(N)c12 [Compound 51, (S)-3-(1-(8-amino-1-methylimidazo[1,5-a]pyrazin-3-yl)ethyl)-5-chloro-6-fluoro-2-isopropoxy-N-((tetrahydro-2H-pyran-4-yl)methyl)benzamide] | 27000 | 0.97 | 5.19 | 4500
Cc1nc(C(C)c2cc(Cl)c(F)c(C(=O)N3CCC(O)CC3)c2OC(C)C)n2ccnc(N)c12 (stereo not shown) [Compound 7, (3-(1-(8-amino-1-methylimidazo[1,5-a]pyrazin-3-yl)ethyl)-5-chloro-6-fluoro-2-isopropoxyphenyl)(4-hydroxypiperidin-1-yl)methanone] | > 50000 | 6 | < 4.30 | 17000
COCCNC(=O)c1c(F)c(Cl)cc(C(C)c2nc(C)c3c(N)nccn23)c1OC(C)C (stereo not shown) [Compound 8, 3-(1-(8-amino-1-methylimidazo[1,5-a]pyrazin-3-yl)ethyl)-5-chloro-6-fluoro-2-isopropoxy-N-(2-methoxyethyl)benzamide] | 49000 | 2.3 | 4.80 | 6800
Cc1nc([C@@H](C)c2cc(Cl)c(F)c(C(=O)NC[C@H]3CCCO3)c2OC(C)C)n2ccnc(N)c12 [Compound 31, 3-((S)-1-(8-amino-1-methylimidazo[1,5-a]pyrazin-3-yl)ethyl)-5-chloro-6-fluoro-2-isopropoxy-N-(((R)-tetrahydrofuran-2-yl)methyl)benzamide] | 25000 | 3.1 | 4.80 | 6200
Cc1nc([C@@H](C)c2cc(Cl)c(F)c(C(=O)Nc3ccc(F)cc3)c2OC(C)C)n2ccnc(N)c12 [Compound 18, (S)-3-(1-(8-amino-1-methylimidazo[1,5-a]pyrazin-3-yl)ethyl)-5-chloro-6-fluoro-N-(4-fluorophenyl)-2-isopropoxybenzamide] | 19000 | 2.4 | 4.92 | 6500
COC1CCN(C(=O)c2c(F)c(Cl)cc([C@H](C)c3nc(C)c4c(N)nccn34)c2OC(C)C)CC1 [Compound 19, (S)-(3-(1-(8-amino-1-methylimidazo[1,5-a]pyrazin-3-yl)ethyl)-5-chloro-6-fluoro-2-isopropoxyphenyl)(4-methoxypiperidin-1-yl)methanone] | 33000 | 2 | 4.22 | 10000
Cc1nc(C(C)c2cc(Cl)c(F)c(C(=O)N3CC(O)C3)c2OC(C)C)n2ccnc(N)c12 (stereo not shown) [Compound 3, (3-(1-(8-amino-1-methylimidazo[1,5-a]pyrazin-3-yl)ethyl)-5-chloro-6-fluoro-2-isopropoxyphenyl)(3-hydroxyazetidin-1-yl)methanone] | 49000 | 6.3 | 4.47 | 19000

Now from value to molecule:

IC50 [1] [nM] | IC50 [2] [nM] | pIC50 [3] | IC50 [4] [nM] | Compound
14000 | 1.5 | 4.59 | 2800 | Cc1nc([C@@H](C)c2cc(Cl)c(F)c(C(=O)N[C@H](C)c3ccnc(C(F)(F)F)c3)c2OC(C)C)n2ccnc(N)c12 [Compound 59B, 3((S)-1-(8-amino-1-methylimidazo[1,5-a]pyrazin-3-yl)ethyl)-5-chloro-6-fluoro-2-isopropoxy-N-((R)-1-(2-(trifluoromethyl)pyridin-4-yl)ethyl)benzamide]
14000 | 2.2 | 4.92 | 3400 | Cc1nc([C@@H](C)c2cc(Cl)c(F)c(C(=O)NCC3(O)CC3)c2OC(C)C)n2ccnc(N)c12 [Compound 66, (S)-3(1-(8-amino-1-methylimidazo[1,5-a]pyrazin-3-yl)ethyl)-5-chloro-6-fluoro-N-((1-hydroxycyclopropyl)methyl)-2-isopropoxybenzamide]
14000 | 0.68 | 4.96 | 2400 | Cc1nc([C@@H](C)c2cc(Cl)c(F)c(C(=O)N[C@@H]3CC[C@@H](O)C3)c2OC(C)C)n2ccnc(N)c12 [Compound 53, 3-((S)-1-(8-amino-1-methylimidazo[1,5-a]pyrazin-3-yl)ethyl)-5-chloro-6-fluoro-N-((1R,3R)-3-hydroxycyclopentyl)-2-isopropoxybenzamide]
14000 | 2.2 | 4.80 | 2800 | Cc1nc([C@@H](C)c2cc(Cl)c(F)c(C(=O)N[C@@H]3CCC[C@H]3O)c2OC(C)C)n2ccnc(N)c12 [Compound 58, 3-((S)-1-(8-amino-1-methylimidazo[1,5-a]pyrazin-3-yl)ethyl)-5-chloro-6-fluoro-N-((1R,2R)-2-hydroxycyclopentyl)-2-isopropoxybenzamide]
28000 | 1.9 | 4.36 | 4500 | Cc1nc([C@@H](C)c2cc(Cl)c(F)c(C(=O)NC3(CN4CCN(CC5CC5)CC4)CC3)c2OC(C)C)n2ccnc(N)c12 [Compound 56, (S)-3-(1-(8-amino-1-methylimidazo[1,5-a]pyrazin-3-yl)ethyl)-5-chloro-N-(1-((4-(cyclopropylmethyl)piperazin-1-yl)methyl)cyclopropyl)-6-fluoro-2-isopropoxybenzamide]
8300 | 2.1 | 4.85 | 1200 | Cc1nc([C@@H](C)c2cc(Cl)c(F)c(C(=O)N[C@@H](C)c3ccnc(C(F)(F)F)c3)c2OC(C)C)n2ccnc(N)c12 [Compound 59A, 3-((S)-1-(8-amino-1-methylimidazo[1,5-a]pyrazin-3-yl)ethyl)-5-chloro-6-fluoro-2-isopropoxy-N-((S)-1-(2-(trifluoromethyl)pyridin-4-yl)ethyl)benzamide]
> 50000 | 1.6 | < 4.30 | 14000 | Cc1nc([C@@H](C)c2cc(Cl)c(F)c(C(=O)N3CCC4(CC3)COC4)c2OC(C)C)n2ccnc(N)c12 [Compound 64, (S)-(3-(1-(8-amino-1-methylimidazo[1,5-a]pyrazin-3-yl)ethyl)-5-chloro-6-fluoro-2-isopropoxyphenyl)(2-oxa-7-azaspiro[3.5]nonan-7-yl)methanone]
